# Laboratory results reported in patent publication US20240041877A1, “DOSAGE REGIME AND METHOD FOR TREATING PULMONARY ARTERIAL HYPERTENSION” (Altavant Sciences GmbH, priority 2019, published 2024).
# Columns and labels:
# Assay type in all cases: in vivo, human
# [1] = Safety and tolerability in healthy adult subjects (SAD and MAD)
# serum 5-HT = test: Part 2 (MAD) biomarker: serum 5-HT change from Day 1 predose
# Excerpt: (§1) Biomarkers were to be evaluated in Part 2 by measuring concentrations of serotonin (5-hydroxytryptamine [5-HT]) in serum and 5-hydroxyindoleacetic acid (5-HIAA) in plasma and urine. As well, the relationship of biomarkers to PK parameters was to be evaluated.
# (§2) The biomarker analysis was to be based on the Biomarker Population (all subjects with evaluable biomarker measurements at baseline [Day 1 predose] and at least one after dosing [Day 7 or Day 14]).
# (§3) Biomarker data were to be collected only in Part 2. The following biomarkers were to be analyzed: • Serum 5-HT • Plasma 5-HIAA • Urine 5-HIAA/24 hours (as measured, adjusted, estimated, and per gram creatinine)
# (§4) Summary statistics (mean, standard deviation [SD], median, minimum [Min], and maximum [Max]) were to be tabulated for each biomarker, by Cohort, with absolute and relative (%) changes from Day 1 predose.
# (§5) The values were to be tabulated with P values testing whether the difference of changes was equal to 0.
# (§6) The biomarker portion of the study was conducted in Part 2 MAD using the Biomarker Population. The biomarkers evaluated were serum 5-HT and plasma 5-HIAA, as well as urine 5-HIAA/24 hours (as measured, adjusted, estimated, and per gram creatinine). Urinary 5-HIAA was determined by a validated (21 C.F.R. 58, GLP-compliant) method using liquid chromatographic separation and tandem mass spectrometry detection.
# [2] = Part 1 (SAD): urine pharmacokinetics (amount excreted, renal clearance) after a single oral dose of KAR5585
# [3] = system: plasma 5-HIAA (a PD marker of 5-HT synthesis); test: Part 2 (MAD) biomarker: plasma 5-HIAA change from Day 1 predose
# Excerpt: as §1, §2, §3
# The a priori primary biomarker endpoint was to be the change in plasma 5-HIAA concentration on Day 14 from Day 1.
# as §4, §5, §6
# [4] = all doses pooled, predose Day 7
# [5] = all doses pooled, predose Day 14
# [6] = KAR5585 in urine, 1200 mg KAR5585 single oral dose, mean
smiles,measurement,setting,value
"CCOC(=O)[C@@H]1CC2(CCN(c3cc(O[C@H](c4ccc(Cl)cc4-c4ccccc4)C(F)(F)F)nc(N)n3)CC2)CN1 [KAR5585, (S)-ethyl 8-(2-amino-6-((R)-1-(5-chloro-[1,1′-biphenyl]-2-yl)-2,2,2-trifluoroethoxy)pyrimidin-4-yl)-2,8-diazaspiro[4.5]decane-3-carboxylate]",safety and tolerability,"[1]; 100 mg (fasting), 100, 200, 400 mg (fed) BID up to 14 days, 36 healthy adult subjects",safe and well-tolerated
same,tolerability,"[1]; 400 mg single oral dose, fed, 9 healthy adult subjects",well-tolerated
same,"tolerability, whole trial","[1]; Part 1 and Part 2, all doses",well tolerated throughout the trial
same,safety and tolerability,"[1]; single ascending oral dose 100-2000 mg, fasting, 54 healthy adult subjects",safe and well-tolerated
same,Serum 5-HT: mean difference of % change from Day 1 between KAR5585 and placebo,"serum 5-HT; 100 mg fasting, predose Day 7",−10.97%
same,Serum 5-HT: mean difference of absolute change from Day 1 between KAR5585 and placebo,"serum 5-HT; 100 mg fasting, predose Day 7",-12.97 ng/mL
same,Serum 5-HT: mean difference of % change from Day 1 between KAR5585 and placebo,"serum 5-HT; 100 mg fasting, predose Day 14",−15.92%
same,Serum 5-HT: mean difference of absolute change from Day 1 between KAR5585 and placebo,"serum 5-HT; 100 mg fasting, predose Day 14",-17.39 ng/mL
same,Serum 5-HT: mean difference of % change from Day 1 between KAR5585 and placebo,"serum 5-HT; 100 mg fed, predose Day 7",−11.02%
same,Serum 5-HT: mean difference of absolute change from Day 1 between KAR5585 and placebo,"serum 5-HT; 100 mg fed, predose Day 7",-15.75 ng/mL
same,Serum 5-HT: mean difference of % change from Day 1 between KAR5585 and placebo,"serum 5-HT; 100 mg fed, predose Day 14",−0.47%
same,Serum 5-HT: mean difference of absolute change from Day 1 between KAR5585 and placebo,"serum 5-HT; 100 mg fed, predose Day 14",5.08 ng/mL
same,Serum 5-HT: mean difference of % change from Day 1 between KAR5585 and placebo,"serum 5-HT; 200 mg fed, predose Day 7",−21.64%
same,Serum 5-HT: mean difference of absolute change from Day 1 between KAR5585 and placebo,"serum 5-HT; 200 mg fed, predose Day 7",-28.53 ng/mL
same,Serum 5-HT: mean difference of % change from Day 1 between KAR5585 and placebo,"serum 5-HT; 200 mg fed, predose Day 14",−11.43%
same,Serum 5-HT: mean difference of absolute change from Day 1 between KAR5585 and placebo,"serum 5-HT; 200 mg fed, predose Day 14",-5.79 ng/mL
same,Serum 5-HT: mean difference of % change from Day 1 between KAR5585 and placebo,"serum 5-HT; 400 mg fed, predose Day 7",2.09%
same,Serum 5-HT: mean difference of absolute change from Day 1 between KAR5585 and placebo,"serum 5-HT; 400 mg fed, predose Day 7",16.47 ng/mL
same,Serum 5-HT: mean difference of % change from Day 1 between KAR5585 and placebo,"serum 5-HT; 400 mg fed, predose Day 14",−50.02%
same,Serum 5-HT: mean difference of absolute change from Day 1 between KAR5585 and placebo,"serum 5-HT; 400 mg fed, predose Day 14",-84.50 ng/mL
same,"mean difference vs placebo of percent changes from Day 1 in serum 5-HT concentration, significance",serum 5-HT; Day 7,statistically significant compared to placebo on Day 7 in favor of the 200 mg fed dose group
same,Serum 5-HT: mean difference of % change from Day 1 between KAR5585 and placebo,serum 5-HT; [4],−10.39%
same,Serum 5-HT: mean difference of absolute change from Day 1 between KAR5585 and placebo,serum 5-HT; [4],-10.19 ng/mL
same,Serum 5-HT: mean difference of % change from Day 1 between KAR5585 and placebo,serum 5-HT; [5],−20.26%
same,Serum 5-HT: mean difference of absolute change from Day 1 between KAR5585 and placebo,serum 5-HT; [5],-27.14 ng/mL
same,Amount Excreted (Ae),[2]; [6],0 µg
same,Total Excreted (%),[2]; [6],0%
same,Total Excreted (%),"[2]; KAR5585 in urine, 2000 mg KAR5585 single oral dose, mean",0.0000751%
same,CL renal,"[2]; human, urine, po, 400 mg, KAR5585, 400 mg (Fasted) KAR5585 single oral dose, mean",0.858 mL/min
same,amount excreted (Ae) in urine,"[2]; single oral KAR5585, all dose levels",less than 0.004 % of the administered dose
same,Plasma 5-HIAA: mean difference of % change from Day 1 between KAR5585 and placebo,"[3]; 100 mg fasting, predose Day 7",23.67%
same,Plasma 5-HIAA: mean difference of absolute change from Day 1 between KAR5585 and placebo,"[3]; 100 mg fasting, predose Day 7",0.33 ng/mL
same,Plasma 5-HIAA: mean difference of % change from Day 1 between KAR5585 and placebo,"[3]; 100 mg fasting, predose Day 14",−48.83%
same,Plasma 5-HIAA: mean difference of absolute change from Day 1 between KAR5585 and placebo,"[3]; 100 mg fasting, predose Day 14",-5.92 ng/mL
same,Plasma 5-HIAA: mean difference of % change from Day 1 between KAR5585 and placebo,"[3]; 100 mg fed, predose Day 7",−48.56%
same,Plasma 5-HIAA: mean difference of absolute change from Day 1 between KAR5585 and placebo,"[3]; 100 mg fed, predose Day 7",-4.56 ng/mL
same,Plasma 5-HIAA: mean difference of % change from Day 1 between KAR5585 and placebo,"[3]; 100 mg fed, predose Day 14",−52.70%
same,Plasma 5-HIAA: mean difference of absolute change from Day 1 between KAR5585 and placebo,"[3]; 100 mg fed, predose Day 14",-4.50 ng/mL
same,Plasma 5-HIAA: mean difference of % change from Day 1 between KAR5585 and placebo,"[3]; 200 mg fed, predose Day 7",12.06%
same,Plasma 5-HIAA: mean difference of absolute change from Day 1 between KAR5585 and placebo,"[3]; 200 mg fed, predose Day 7",1.22 ng/mL
same,Plasma 5-HIAA: mean difference of % change from Day 1 between KAR5585 and placebo,"[3]; 200 mg fed, predose Day 14",−52.46%
same,Plasma 5-HIAA: mean difference of absolute change from Day 1 between KAR5585 and placebo,"[3]; 200 mg fed, predose Day 14",-5.25 ng/mL
same,Plasma 5-HIAA: mean difference of % change from Day 1 between KAR5585 and placebo,"[3]; 400 mg fed, predose Day 7",−76.47%
same,Plasma 5-HIAA: mean difference of absolute change from Day 1 between KAR5585 and placebo,"[3]; 400 mg fed, predose Day 7",-11.44 ng/mL
same,Plasma 5-HIAA: mean difference of % change from Day 1 between KAR5585 and placebo,"[3]; 400 mg fed, predose Day 14",−73.45%
same,Plasma 5-HIAA: mean difference of absolute change from Day 1 between KAR5585 and placebo,"[3]; 400 mg fed, predose Day 14",-10.69 ng/mL
same,mean reduction from Day 1 to Day 14 in plasma 5-HIAA,"[3]; KAR5585 100 mg BID, fasting",−28.71%
